Data: ChEMBL document CHEMBL5291721, “A preclinical secondary pharmacology resource illuminates target-adverse drug reaction associations of marketed drugs” (Nat Commun, 2023)

Tests used:
Glucocorticoid receptor = target: T1, Glucocorticoid receptor (Homo sapiens, UniProt P04150)
T1 sequence (P04150 whole entry): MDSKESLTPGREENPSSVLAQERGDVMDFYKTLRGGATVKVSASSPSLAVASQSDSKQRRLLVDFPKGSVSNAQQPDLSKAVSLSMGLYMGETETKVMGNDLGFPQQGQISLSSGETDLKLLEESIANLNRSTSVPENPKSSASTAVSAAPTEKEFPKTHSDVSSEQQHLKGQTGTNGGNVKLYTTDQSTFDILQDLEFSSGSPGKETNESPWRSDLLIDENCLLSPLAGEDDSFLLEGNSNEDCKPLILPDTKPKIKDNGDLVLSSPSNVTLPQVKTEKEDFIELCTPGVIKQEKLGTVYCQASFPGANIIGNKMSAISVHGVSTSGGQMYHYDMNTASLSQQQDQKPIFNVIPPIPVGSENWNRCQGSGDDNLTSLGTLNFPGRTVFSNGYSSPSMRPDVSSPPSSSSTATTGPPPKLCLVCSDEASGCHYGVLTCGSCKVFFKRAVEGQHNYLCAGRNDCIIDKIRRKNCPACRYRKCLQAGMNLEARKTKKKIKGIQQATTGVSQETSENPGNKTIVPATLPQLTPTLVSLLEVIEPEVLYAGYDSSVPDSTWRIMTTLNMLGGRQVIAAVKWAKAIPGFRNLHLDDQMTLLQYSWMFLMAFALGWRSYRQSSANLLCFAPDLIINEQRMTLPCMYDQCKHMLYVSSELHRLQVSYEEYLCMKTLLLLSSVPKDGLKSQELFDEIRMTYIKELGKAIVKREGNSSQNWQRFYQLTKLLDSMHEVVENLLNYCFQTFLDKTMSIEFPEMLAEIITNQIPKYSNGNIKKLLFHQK

[1] = target: T2, Alpha-1A adrenergic receptor (Homo sapiens, UniProt P35348)
T2 sequence (P35348 whole entry): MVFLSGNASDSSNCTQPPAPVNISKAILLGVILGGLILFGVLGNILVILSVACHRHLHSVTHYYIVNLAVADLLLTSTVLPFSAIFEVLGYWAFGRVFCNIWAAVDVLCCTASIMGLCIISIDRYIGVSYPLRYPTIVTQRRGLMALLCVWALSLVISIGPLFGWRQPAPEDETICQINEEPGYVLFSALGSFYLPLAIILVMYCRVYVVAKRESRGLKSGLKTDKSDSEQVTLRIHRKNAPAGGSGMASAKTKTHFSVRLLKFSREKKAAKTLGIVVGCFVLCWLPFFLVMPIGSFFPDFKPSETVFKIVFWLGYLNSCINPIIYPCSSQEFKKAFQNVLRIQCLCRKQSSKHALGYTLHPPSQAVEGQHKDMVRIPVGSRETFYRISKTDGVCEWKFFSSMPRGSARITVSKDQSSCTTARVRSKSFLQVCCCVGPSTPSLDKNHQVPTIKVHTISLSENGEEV

Histamine H1 receptor = Histamine H1 receptor (Homo sapiens, UniProt P35367)
[2] = target: Muscarinic acetylcholine receptor M3 (Homo sapiens, UniProt P20309)
D(3) dopamine receptor = D(3) dopamine receptor (Homo sapiens, UniProt P35462)
[3] = target: Voltage-dependent L-type calcium channel subunit alpha-1C (Rattus norvegicus, UniProt P22002); format: functional
[4] = target: Gamma-aminobutyric acid receptor subunit alpha-1 (Rattus norvegicus, UniProt P62813); format: functional
[5] = target: Neuronal acetylcholine receptor subunit alpha-4 (Homo sapiens, UniProt P43681)
[6] = target: cGMP-inhibited 3',5'-cyclic phosphodiesterase 3A (Homo sapiens, UniProt Q14432); format: functional
Mu-type opioid receptor [7] = target: T3, Mu-type opioid receptor (Homo sapiens, UniProt P35372)
[8] = target: Sodium-dependent dopamine transporter (Homo sapiens, UniProt Q01959)
[9] = target: T4, Alpha-2A adrenergic receptor (Homo sapiens, UniProt P08913); format: functional, cell-based
T4 sequence (P08913 whole entry): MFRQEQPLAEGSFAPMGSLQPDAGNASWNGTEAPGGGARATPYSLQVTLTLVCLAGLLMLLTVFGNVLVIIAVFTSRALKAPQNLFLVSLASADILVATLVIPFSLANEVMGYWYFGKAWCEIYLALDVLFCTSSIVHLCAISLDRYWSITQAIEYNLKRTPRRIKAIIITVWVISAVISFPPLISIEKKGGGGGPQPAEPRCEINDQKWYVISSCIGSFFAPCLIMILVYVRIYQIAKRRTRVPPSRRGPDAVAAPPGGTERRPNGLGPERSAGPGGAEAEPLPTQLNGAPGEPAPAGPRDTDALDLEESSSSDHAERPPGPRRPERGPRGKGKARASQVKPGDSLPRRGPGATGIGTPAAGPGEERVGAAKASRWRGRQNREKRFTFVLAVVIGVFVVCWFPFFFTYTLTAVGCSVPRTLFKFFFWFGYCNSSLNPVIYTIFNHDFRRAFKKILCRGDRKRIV

Cannabinoid receptor 1 = Cannabinoid receptor 1 (Homo sapiens, UniProt P21554); format: functional, cell-based
Endothelin-1 receptor = target: T5, Endothelin-1 receptor (Homo sapiens, UniProt P25101)
T5 sequence (P25101 whole entry): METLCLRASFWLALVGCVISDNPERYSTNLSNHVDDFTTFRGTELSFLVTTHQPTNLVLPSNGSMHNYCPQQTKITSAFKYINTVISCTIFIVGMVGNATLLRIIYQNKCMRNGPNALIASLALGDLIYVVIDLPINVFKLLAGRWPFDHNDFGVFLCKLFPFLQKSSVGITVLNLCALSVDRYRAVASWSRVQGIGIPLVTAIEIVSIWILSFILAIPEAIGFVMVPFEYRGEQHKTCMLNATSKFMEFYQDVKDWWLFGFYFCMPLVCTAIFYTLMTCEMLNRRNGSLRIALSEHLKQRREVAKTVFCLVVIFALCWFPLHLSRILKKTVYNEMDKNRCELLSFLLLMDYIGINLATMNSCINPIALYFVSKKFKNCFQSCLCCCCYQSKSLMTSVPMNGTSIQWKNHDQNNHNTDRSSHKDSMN

Mu-type opioid receptor [10] = target: T3, Mu-type opioid receptor; assay: biochemical; format: functional
[11] = target: Gamma-aminobutyric acid receptor subunit alpha-1/alpha-2/beta-2/gamma-2 (Homo sapiens, UniProt P14867+P18507+P47869+P47870); format: protein-complex assay
[12] = target: 5-hydroxytryptamine receptor 2A (Homo sapiens, UniProt P28223); format: functional, cell-based
Also: assay procedure not described here.

Chain of D(3) dopamine receptor (P35462 whole entry): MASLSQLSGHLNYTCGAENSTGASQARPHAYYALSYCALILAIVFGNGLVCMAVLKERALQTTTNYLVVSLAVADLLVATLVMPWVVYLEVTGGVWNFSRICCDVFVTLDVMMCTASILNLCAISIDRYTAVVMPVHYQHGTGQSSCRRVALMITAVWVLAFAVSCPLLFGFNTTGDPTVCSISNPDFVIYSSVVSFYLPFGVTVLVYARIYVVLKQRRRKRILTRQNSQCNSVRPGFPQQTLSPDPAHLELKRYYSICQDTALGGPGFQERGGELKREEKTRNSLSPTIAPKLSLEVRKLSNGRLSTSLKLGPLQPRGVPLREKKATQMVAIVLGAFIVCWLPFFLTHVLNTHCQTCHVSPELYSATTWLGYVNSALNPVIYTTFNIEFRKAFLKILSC
T3 sequence (P35372 whole entry): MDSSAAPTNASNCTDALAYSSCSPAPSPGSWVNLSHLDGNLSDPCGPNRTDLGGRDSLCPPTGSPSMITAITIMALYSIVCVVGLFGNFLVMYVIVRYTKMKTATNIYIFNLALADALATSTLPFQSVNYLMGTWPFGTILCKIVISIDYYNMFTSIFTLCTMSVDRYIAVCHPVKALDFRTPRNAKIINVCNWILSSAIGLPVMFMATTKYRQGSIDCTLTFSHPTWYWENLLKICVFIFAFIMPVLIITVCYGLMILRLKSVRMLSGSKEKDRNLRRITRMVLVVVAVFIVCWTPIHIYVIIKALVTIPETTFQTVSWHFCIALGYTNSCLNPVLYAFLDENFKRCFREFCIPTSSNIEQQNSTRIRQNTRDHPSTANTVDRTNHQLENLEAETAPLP
Chain of Neuronal acetylcholine receptor subunit alpha-4 (P43681 whole entry): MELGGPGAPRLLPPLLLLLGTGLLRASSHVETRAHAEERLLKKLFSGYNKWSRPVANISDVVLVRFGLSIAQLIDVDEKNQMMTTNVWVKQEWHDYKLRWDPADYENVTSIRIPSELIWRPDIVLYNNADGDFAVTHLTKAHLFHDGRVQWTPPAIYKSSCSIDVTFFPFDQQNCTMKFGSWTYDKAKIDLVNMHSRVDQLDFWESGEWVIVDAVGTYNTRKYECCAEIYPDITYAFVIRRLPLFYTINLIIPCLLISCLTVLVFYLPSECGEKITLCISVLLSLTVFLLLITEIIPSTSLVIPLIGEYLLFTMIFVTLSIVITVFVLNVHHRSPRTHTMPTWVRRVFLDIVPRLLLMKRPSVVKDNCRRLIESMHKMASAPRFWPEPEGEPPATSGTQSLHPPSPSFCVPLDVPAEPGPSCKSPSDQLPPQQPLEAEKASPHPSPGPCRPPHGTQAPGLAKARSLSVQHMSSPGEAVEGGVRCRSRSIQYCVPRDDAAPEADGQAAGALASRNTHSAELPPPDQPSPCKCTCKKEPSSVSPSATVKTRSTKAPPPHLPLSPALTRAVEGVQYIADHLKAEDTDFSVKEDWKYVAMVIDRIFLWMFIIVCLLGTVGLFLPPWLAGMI
Chain of Sodium-dependent dopamine transporter (Q01959 whole entry): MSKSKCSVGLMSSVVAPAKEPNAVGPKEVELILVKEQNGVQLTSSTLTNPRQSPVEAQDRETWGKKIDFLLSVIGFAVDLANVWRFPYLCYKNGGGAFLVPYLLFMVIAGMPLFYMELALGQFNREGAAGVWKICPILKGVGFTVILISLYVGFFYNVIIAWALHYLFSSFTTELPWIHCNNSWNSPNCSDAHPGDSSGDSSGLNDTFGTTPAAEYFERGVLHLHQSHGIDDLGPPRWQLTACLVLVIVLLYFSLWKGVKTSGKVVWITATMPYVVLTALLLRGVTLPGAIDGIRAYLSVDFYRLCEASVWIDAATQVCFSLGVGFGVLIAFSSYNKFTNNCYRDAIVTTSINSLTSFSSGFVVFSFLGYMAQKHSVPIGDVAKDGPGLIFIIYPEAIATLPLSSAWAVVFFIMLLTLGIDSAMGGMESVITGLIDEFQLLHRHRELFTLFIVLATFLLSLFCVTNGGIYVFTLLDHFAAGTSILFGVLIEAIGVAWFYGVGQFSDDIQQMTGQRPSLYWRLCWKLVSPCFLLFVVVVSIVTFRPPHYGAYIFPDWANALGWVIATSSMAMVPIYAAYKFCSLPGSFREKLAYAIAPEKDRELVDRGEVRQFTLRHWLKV
Chain of cGMP-inhibited 3',5'-cyclic phosphodiesterase 3A (Q14432 whole entry): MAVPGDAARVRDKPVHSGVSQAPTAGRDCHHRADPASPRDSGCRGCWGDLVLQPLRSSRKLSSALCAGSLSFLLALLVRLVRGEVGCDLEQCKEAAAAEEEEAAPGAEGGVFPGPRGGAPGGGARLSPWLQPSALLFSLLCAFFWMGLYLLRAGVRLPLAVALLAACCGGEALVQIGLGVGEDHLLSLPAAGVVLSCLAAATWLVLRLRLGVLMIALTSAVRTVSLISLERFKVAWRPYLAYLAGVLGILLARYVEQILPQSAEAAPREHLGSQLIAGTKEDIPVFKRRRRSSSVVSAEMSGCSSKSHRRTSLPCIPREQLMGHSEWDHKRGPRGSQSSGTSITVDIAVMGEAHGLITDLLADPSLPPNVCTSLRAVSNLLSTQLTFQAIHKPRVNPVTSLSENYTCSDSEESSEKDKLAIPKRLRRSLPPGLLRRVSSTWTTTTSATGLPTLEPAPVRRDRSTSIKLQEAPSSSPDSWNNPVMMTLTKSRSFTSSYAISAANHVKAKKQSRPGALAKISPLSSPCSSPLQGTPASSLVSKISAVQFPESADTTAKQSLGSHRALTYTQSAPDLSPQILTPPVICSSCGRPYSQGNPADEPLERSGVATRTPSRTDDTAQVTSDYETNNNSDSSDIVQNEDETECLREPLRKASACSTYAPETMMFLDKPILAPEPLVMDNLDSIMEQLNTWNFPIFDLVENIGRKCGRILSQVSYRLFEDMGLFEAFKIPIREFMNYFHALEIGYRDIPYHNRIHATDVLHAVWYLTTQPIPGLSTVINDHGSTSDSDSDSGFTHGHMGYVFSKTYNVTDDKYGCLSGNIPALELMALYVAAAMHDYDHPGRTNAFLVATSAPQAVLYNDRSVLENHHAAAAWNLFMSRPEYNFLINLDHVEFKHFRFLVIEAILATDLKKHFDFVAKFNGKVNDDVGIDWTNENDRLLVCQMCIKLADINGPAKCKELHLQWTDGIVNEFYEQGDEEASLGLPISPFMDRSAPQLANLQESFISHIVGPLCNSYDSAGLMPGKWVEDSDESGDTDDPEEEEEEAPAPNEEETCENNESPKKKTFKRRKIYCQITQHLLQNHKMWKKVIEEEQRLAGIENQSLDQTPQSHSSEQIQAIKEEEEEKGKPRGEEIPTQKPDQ
Chain of Histamine H1 receptor (P35367 whole entry): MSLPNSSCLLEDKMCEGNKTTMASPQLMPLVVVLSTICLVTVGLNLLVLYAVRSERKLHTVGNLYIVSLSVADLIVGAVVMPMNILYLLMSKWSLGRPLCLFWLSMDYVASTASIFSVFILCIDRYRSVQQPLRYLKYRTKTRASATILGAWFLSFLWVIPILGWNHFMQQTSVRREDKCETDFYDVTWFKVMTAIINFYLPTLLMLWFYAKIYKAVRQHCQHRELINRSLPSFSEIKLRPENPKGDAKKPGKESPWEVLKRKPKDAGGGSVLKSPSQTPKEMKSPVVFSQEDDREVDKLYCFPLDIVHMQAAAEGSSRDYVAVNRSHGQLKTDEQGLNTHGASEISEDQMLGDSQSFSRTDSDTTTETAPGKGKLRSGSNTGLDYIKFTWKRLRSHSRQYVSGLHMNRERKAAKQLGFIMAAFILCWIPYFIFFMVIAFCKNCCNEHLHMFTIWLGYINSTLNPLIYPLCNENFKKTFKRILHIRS
Chain of Muscarinic acetylcholine receptor M3 (P20309 whole entry): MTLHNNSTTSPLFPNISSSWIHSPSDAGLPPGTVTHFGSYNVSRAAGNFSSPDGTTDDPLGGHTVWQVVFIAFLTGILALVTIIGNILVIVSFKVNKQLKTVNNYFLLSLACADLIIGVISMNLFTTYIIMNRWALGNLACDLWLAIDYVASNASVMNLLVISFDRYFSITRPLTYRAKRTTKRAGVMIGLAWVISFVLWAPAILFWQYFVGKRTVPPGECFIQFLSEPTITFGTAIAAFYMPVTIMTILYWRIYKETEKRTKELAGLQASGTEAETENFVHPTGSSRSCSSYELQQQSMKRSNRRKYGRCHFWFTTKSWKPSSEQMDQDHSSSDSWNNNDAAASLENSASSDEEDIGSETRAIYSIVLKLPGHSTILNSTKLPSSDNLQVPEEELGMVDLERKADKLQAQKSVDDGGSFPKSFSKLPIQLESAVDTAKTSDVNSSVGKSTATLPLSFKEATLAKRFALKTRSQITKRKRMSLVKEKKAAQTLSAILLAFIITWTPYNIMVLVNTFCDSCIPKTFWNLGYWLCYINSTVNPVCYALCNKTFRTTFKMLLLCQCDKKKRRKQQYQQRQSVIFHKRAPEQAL
Chain of Gamma-aminobutyric acid receptor subunit alpha-1 (P62813 whole entry): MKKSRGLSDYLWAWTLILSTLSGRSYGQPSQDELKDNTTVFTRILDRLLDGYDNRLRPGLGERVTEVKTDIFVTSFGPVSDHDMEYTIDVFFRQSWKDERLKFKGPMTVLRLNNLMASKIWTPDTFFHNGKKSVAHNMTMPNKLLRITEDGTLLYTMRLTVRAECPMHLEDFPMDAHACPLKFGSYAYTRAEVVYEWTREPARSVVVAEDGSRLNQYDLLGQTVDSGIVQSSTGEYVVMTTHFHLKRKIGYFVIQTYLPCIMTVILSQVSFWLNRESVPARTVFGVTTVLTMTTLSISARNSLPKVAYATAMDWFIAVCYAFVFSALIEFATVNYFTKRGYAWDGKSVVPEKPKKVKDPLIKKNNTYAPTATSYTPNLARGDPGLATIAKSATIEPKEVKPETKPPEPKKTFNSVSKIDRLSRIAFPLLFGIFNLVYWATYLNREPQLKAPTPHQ

Structure (SMILES) | AC50 (Glucocorticoid receptor) [µM] | AC50 [1] [µM] | AC50 (Histamine H1 receptor) [µM] | AC50 [2] [µM] | AC50 (D(3) dopamine receptor) [µM] | AC50 [3] [µM] | AC50 [4] [µM] | AC50 [5] [µM] | AC50 [6] [µM] | AC50 (Mu-type opioid receptor [7]) [µM] | AC50 [8] [µM] | AC50 [9] [µM] | AC50 (Cannabinoid receptor 1) [µM] | AC50 (Endothelin-1 receptor) [µM] | AC50 (Mu-type opioid receptor [10]) [µM] | AC50 [11] [µM] | AC50 [12] [µM]
C[C@]12CC[C@H](O)CC1=CC[C@@H]1[C@@H]2CC[C@]2(C)C(c3cccnc3)=CC[C@@H]12 [ABIRATERONE] | > 30 | > 10 | > 10 | > 30 | > 30 | > 10 | > 10 | > 10 | > 30 | > 30 | > 30 | > 10 |  |  |  |  | 
CC(=O)OCC[N+](C)(C)C [ACETYLCHOLINE] | > 30 | > 10 | > 10 |  | > 30 | > 10 | > 10 |  | > 30 | > 10 | > 30 | > 10 | > 30 | > 30 |  |  | 
NS(=O)(=O)c1cc(C2(O)NC(=O)c3ccccc32)ccc1Cl (stereo unspecified) [CHLORTHALIDONE] | > 10 | > 10 |  |  | > 30 | > 10 | > 10 | > 10 | > 30 | > 30 | > 10 | > 10 |  |  | > 30 |  | 
O=C(O)CC(O)(CC(=O)O)C(=O)O [CITRIC ACID] |  |  |  |  |  |  |  |  |  |  |  |  |  |  |  | > 30 | 
COc1ccc2c(c1)[C@]13CCCC[C@@H]1[C@H](C2)N(C)CC3 [DEXTROMETHORPHAN] | > 30 | 3.58 |  |  | > 30 | > 10 | > 10 | > 10 | > 30 | 2.7 | > 10 | > 10 |  | > 30 | > 30 |  | 
Cc1onc(-c2c(Cl)cccc2Cl)c1C(=O)N[C@@H]1C(=O)N2[C@@H]1SC(C)(C)[C@@H]2C(=O)O [DICLOXACILLIN] |  |  |  |  |  |  |  |  |  |  |  |  |  |  |  | > 30 | 
O=c1oc2ccccc2c(O)c1Cc1c(O)c2ccccc2oc1=O [DICUMAROL] |  | > 10 |  |  | > 30 | > 10 | > 10 | > 10 | > 10 | > 30 | > 10 | > 10 |  |  | > 30 |  | 
C[C@H]1O[C@@H](O[C@H]2[C@@H](O)C[C@H](O[C@H]3[C@@H](O)C[C@H](O[C@H]4CC[C@@]5(C)[C@H](CC[C@@H]6[C@@H]5CC[C@]5(C)[C@@H](C7=CC(=O)OC7)CC[C@]65O)C4)O[C@@H]3C)O[C@@H]2C)C[C@H](O)[C@@H]1O [DIGITOXIN] |  |  |  |  |  |  |  |  |  |  |  |  |  |  |  | > 30 | 
OC(CCCN1CCCCC1)(c1ccccc1)c1ccccc1 [DIPHENIDOL] |  |  |  |  |  |  |  |  |  |  |  |  |  |  |  | > 30 | 
CCn1cc(C(=O)O)c(=O)c2cc(F)c(N3CCNCC3)nc21 [ENOXACIN] |  | > 10 |  |  | > 10 | > 10 | > 10 | > 10 | > 30 | > 10 | > 10 | > 10 |  | 11.3 |  |  | 
C[C@@H](O)[C@H]1C(=O)N2C(C(=O)O)=C([C@H]3CCCO3)S[C@H]12 [FAROPENEM] |  |  |  |  |  |  |  |  |  |  |  |  |  |  |  | > 30 | 
COCCOc1cnc(NS(=O)(=O)c2ccccc2)nc1 [GLYMIDINE] |  |  |  |  |  |  |  |  |  |  |  |  |  |  |  | > 30 | 
CC(N)CCCC(C)(C)O (stereo unspecified) [HEPTAMINOL] |  |  |  |  |  |  |  |  |  |  |  |  |  |  |  | > 30 | 
CCC(=O)O[C@]1(C(=O)COC(C)=O)CC[C@H]2[C@@H]3CCC4=CC(=O)CC[C@]4(C)[C@H]3[C@@H](O)C[C@@]21C [HYDROCORTISONE ACEPONATE] |  |  |  |  |  |  |  |  |  |  |  |  |  |  |  | > 30 | 
O=[N+]([O-])O[C@H]1CO[C@H]2[C@@H]1OC[C@H]2O[N+](=O)[O-] [ISOSORBIDE DINITRATE] |  |  |  |  |  |  |  |  |  |  |  |  |  |  |  | > 30 | 
C#C[C@]1(O)CC[C@H]2[C@@H]3CCc4cc(OC)ccc4[C@H]3CC[C@@]21C [MESTRANOL] | 0.516 | > 30 |  |  | > 30 | > 10 | > 10 | > 10 | > 30 | > 30 | 20 | > 10 |  |  | > 30 |  | 
CNCCCC1c2ccccc2C=Cc2ccccc21 [PROTRIPTYLINE] | > 10 | 0.461 |  |  | 0.85 | > 10 | > 10 | > 10 | > 30 | > 10 | 17.8 | > 10 |  |  |  |  | 
COCCCOc1ccnc(C[S+]([O-])c2nc3ccccc3[nH]2)c1C (stereo unspecified) [RABEPRAZOLE] | > 30 | > 10 |  |  | > 10 | > 10 | > 10 | > 10 | > 30 | > 30 | > 10 | > 10 |  | > 30 |  |  | 
O=C(CCCN1CCC2(CC1)C(=O)NCN2c1ccccc1)c1ccc(F)cc1 [SPIPERONE] | > 30 | 0.31 | 1.4 | > 30 |  |  | > 30 | > 30 | > 30 |  | 7.2 | 4.5 | > 30 | > 30 |  |  | 
CN(C)c1cc(NC(=O)CNC(C)(C)C)c(O)c2c1C[C@H]1C[C@H]3[C@H](N(C)C)C(O)=C(C(N)=O)C(=O)[C@@]3(O)C(O)=C1C2=O [TIGECYCLINE] | > 30 | > 30 | > 30 | > 30 | > 30 | > 30 | > 30 | > 30 | > 30 |  | > 30 | > 30 |  |  | > 30 |  | > 30
OCCN1CCN(CC/C=C2/c3ccccc3Sc3ccc(Cl)cc32)CC1 [ZUCLOPENTHIXOL] | > 10 | 0.0114 | 0.028 | > 10 | 0.046 | > 10 | > 10 | > 10 | > 30 | > 10 | 1 | > 10 |  |  | > 30 |  | > 10
